Results: patent US20230303577A1, “TEMOZOLOMIDE ANALOGS AND METHODS OF USE” (St. John's Cancer Institute, priority 2020, published 2023)
Like-named read-outs stand apart in the source and are kept apart here.

Legend:
U87 = assay: cells; conditions: read-out: IC50, 72 h
Experimental: (§1) The effect of selected compounds on glioma cells viability was determined. The cells were plated at 2000 cells/well in 96 well plates. The day after, cells were treated with various concentrations of temozolomide or VMY-TP analogs.
(§2) Activity of TP-RGD was assessed in glioma cell cultures, as described in Example 11.

U251 [1] = assay: cells; conditions: read-out: IC50, 72 h
Experimental: as §1, §2

T98G = assay: cells
Experimental: as §1, §2

A172 = assay: cells; conditions: read-out: IC50, 72 h; A172, MGMT −, Table 14
Experimental: as §1, §2

U251 [2] = conditions: read-out: IC50 U251 cell proliferation (BrdU ELISA); 72 hours of treatment
Experimental: U87 cells were seeded at the density of 2,000 cells/well in 96-well plates and incubated overnight. The day after, cells were treated with various concentrations of Temozolomide or analogs for 72 hours. The BrdU ELISA proliferation assay was performed according to the manufacturer's instructions (Roche, #11647229001). Briefly, 20 μl of diluted BrdU labelling reagent was added to each well, to a final concentration of 10 μM BrdU per well. The cells were then incubated at 37° C. for 24 hours. Following this incubation, the labeling medium was aspirated from each well and 200 μl of Roche FixDenat fixing buffer was added. The plates were then incubated at 25° C. for 30 minutes. The fixing solution was removed, and 100 μl of Anti-BrdU-POD antibody was added to each well and incubated again at 25° C. for 90 minutes. Wells were rinsed three times with 200 μl of PBS, then 100 μl of Roche Substrate solution was added to each well. Following a 25 minute incubation at room temperature, the absorbance of each plate was read at 370 nm (reference wavelength: approx. 492 nm) on a Spectramax® i3x microplate reader.
The effect on U251 cell proliferation after 72 hours of treatment was also assessed using the BrdU ELISA cell proliferation assay as described in Example 11.

P-glycoprotein (P-gp) = assay: Bidirectional Caco-2 permeability / P-gp efflux assay; type: in vitro ADME; conditions: human; Caco-2 permeability; P-gp efflux ratio, Table 15
Experimental: (§3) Permeability of the compounds was evaluated in the bidirectional Caco-2 assay including identification of P-glycoprotein substrate (Pgp-mediated transport). Verapamil was used as a p-gp inhibitor. The apparent permeability (Papp) was calculated using the following equation:
(§4) Papp=VA/Area×Time×[drug]acc/[drug]initial,d
(§5) Permeability of the compounds was evaluated in the bidirectional Caco-2 assay as described in Example 11 (Table 15).

[3] = for % decomp.: AIC formation, pH>7.4, 60° C.; for % SM: phosphate buffer pH>7.4, 60° C.
Experimental: 2 mg of TP-RGD was dissolved in 0.8 mL of phosphate buffer at pH>7.4. […] Then the reaction temperature was increased to 60° C. and incubated for 4 h. During the period of incubation, the reaction was monitored for every 30 min by LC-MS. Measure the AIC formation (% decomp) over the time.

P-gp = assay: Bidirectional Caco-2 permeability / P-gp efflux assay; type: in vitro ADME; conditions: human
Experimental: as §3, §4, §5

Caco-2 = assay: as above; type: in vitro ADME; conditions: human, Caco-2
Experimental: as §3, §4, §5

[4] = Aqueous chemical stability (HPLC-MS); type: physicochemical
Experimental: Detection of products of non-enzymatic cleavage (AIC-TMZ, AIC-TP3, AIC-TP5, and AIC-TP9) was performed (Table 4; FIGS. 5A-5D).

[5] = Metabolic stability in mouse liver microsomes; type: in vitro ADME
Experimental: Metabolic stability of the compounds was also determined in mouse liver microsomes at five time points over 60 minutes, using HPLC-MS. Liver microsomes, as vesicles of the hepatocyte endoplasmic reticulum, contain membrane phase I enzymes namely CYPs, flavine-containing monooxygenases (FMO), esterases, amidases, and epoxide hydrolases, and also the phase II enzymes such as UGTs. For the catalytic activity of both phase I and II enzymes, addition of exogenous cofactors such as NADPH for CYPs and FMO, and UDPGA/alamethicin for UGTs is necessary.

[6] = BBB permeability, cassette intravenous dosing; type: in vivo, male CD-1 mice; conditions: cassette IV 5 mg/kg; for concentration at 5 min: 10% DMSO in PBS
Experimental: BBB permeability of the compounds was tested in male CD-1@IGS mice using cassette intravenous dosing (Table 7 and FIGS. 6A and 6B). There were three animals in each group, given a dose of 5 mg/kg formulated in 10% DMSO in PBS (v/v) for 5 minutes. The endpoint was quantifying the parent compound using LC-MS/MS. Plasma samples (50 μl) were immediately mixed with 25 μl of H3PO4 (8.5%). Then 225 μl of internal standard (IS; 400 ng/ml meldonium in methanol) was added. After mixing by pipetting and centrifuging for 4 min at 6000 rpm, 2 μl of each supernatant was injected into LC-MS/MS system. Brain samples (100 mg±1 mg) were immediately mixed with 100 μl H3PO4 (25%) and zirconium oxide beads (115 mg±5 mg). Then 400 μl of IS solution was added and samples were disperse using a bullet blender homogenizer for 30 seconds at speed 8. The samples were centrifuged for 4 min at 14,000 rpm and 2 μl of each supernatant was injected into LC-MS/MS system.

T98G cells = assay: Cell Titer Glo viability of T98G cells with or without O6-BG pretreatment; type: cell-based
Experimental: T98G cells, which express MGMT, were treated with TMZ or test compounds with or without 3, 6, or 24 hours of pretreatment with 100 μM of O^6-benzylguanine (O^6-BG; a pseudo-substrate of MGMT that quenches the cellular store of enzyme). T98G cell lysates were probed with anti-MGMT antibody and then with anti-a tubulin (FIG. 4). In a separate experiment, TMZ or test compounds were added to T98G cells with or without 5-6 hours of pretreatment with 100 μM O^6-BG. Cell viability was measured using the Cell Titer Glo assay after 3 days of incubation and IC50 values were determined (Table 3).

GBM8 = assay: AlamarBlue cell viability, GBM8 patient-derived cell line; type: cell-based; conditions: 72 h, read-out: IC50, 72 h
Experimental: as §1

`Cn1nnc2c(C(=O)NCCCC[C@@H]3NC(=O)[C@@H](Cc4ccc(O)cc4)NC(=O)[C@H](CC(=O)O)NC(=O)CNC(=O)[C@H](CCCNC(=N)N)NC3=O)ncn2c1=O` [TP-RGD] gave an IC50 (U87; U87MG, MGMT −, Table 14) of over 100 µM, an IC50 (U251 [1]; U251, MGMT −, Table 14) of 0.306 µM and an IC50 (T98G; read-out: IC50, 72 h, MGMT +++, Table 14) of 0.254 µM. For the same molecule, the IC50 (A172) was 0.383 µM, the IC50 (U251 [2]) was 70.2 µM and the efflux ratio (P-glycoprotein (P-gp)) was 0.57. For the same molecule, the “% decomp.” value ([3]; 0.5 h) was 0%, the “% decomp.” value ([3]; 1 h) was 18.2% and the “% decomp.” value ([3]; 1.5 h) was 33.9%. For the same molecule, the “% decomp.” value ([3]; 2 h) was 53.5%, the “% decomp.” value ([3]; 2.5 h) was 56.8% and the “% decomp.” value ([3]; 3 h) was 61.6%. For the same molecule, the “% decomp.” value ([3]; 4 h) was 94.7%, the “% decomp.” value ([3]; 4.5 h) was 94.7% and the “% SM” value ([3]; 1 h) was 81.8%. For the same molecule, the “% SM” value ([3]; 1.5 h) was 65.5%, the “% SM” value ([3]; 2 h) was 45.9% and the “% SM” value ([3]; 2.5 h) was 39.3%. The “% SM” value ([3]; 3 h) was 27.4%, the “% SM” value ([3]; 4 h) was 2.3% and the “% SM” value ([3]; 4.5 h) was 2.3%. The “product formation (hydrolysis)” value ([3]; phosphate buffer pH>7.4, room temperature) was “no product formation”.

`C[C@H]1O[C@@H](O[C@H]2[C@@H](O)C[C@H](O[C@H]3[C@@H](O)C[C@H](O[C@H]4CC[C@@]5(C)[C@H](CC[C@@H]6[C@@H]5C[C@@H](O)[C@]5(C)[C@@H](C7=CC(=O)OC7)CC[C@]65O)C4)O[C@@H]3C)O[C@@H]2C)C[C@H](O)[C@@H]1O` [Digoxin] showed a Papp A→B (P-gp; Caco-2) of 1.2 ×10⁻⁶ cm/s, a Papp B→A (P-gp; Caco-2) of 15.8 ×10⁻⁶ cm/s and an efflux ratio (P-gp; Caco-2, Efflux Ratio BA/AB p-gp Inhibitor (−)) of 13.6. For the same molecule, the “Efflux Ratio BA/AB p-gp Inhibitor (+)” value (Caco-2) was 1.0, the “Papp (AB) p-gp Inhibitor (+)” value (Caco-2) was 5.9 10^−6 cm/s and the “Papp (BA) p-gp Inhibitor (+)” value (Caco-2) was 6.1 10^−6 cm/s.

In the case of `CC[C@]1(O)C[C@@H]2CN(CCc3c([nH]c4ccccc34)[C@@](C(=O)OC)(c3cc4c(cc3OC)N(C)[C@H]3[C@@](O)(C(=O)OC)[C@H](OC(C)=O)[C@]5(CC)C=CCN6CC[C@]43[C@@H]65)C2)C1` [Vinblastine], the efflux ratio (P-gp; Caco-2, Efflux Ratio) is reported as 21.7.

With `Cn1nnc2c(C(=O)NC3CCCCC3)ncn2c1=O` [TP5, N-cyclohexyl-3-methyl-4-oxo-3,4-dihydroimidazo[5,1-d][1,2,3,5]tetrazine-8-carboxamide] the half-life at 1 μM ([4]; 0.1 M phosphate buffer pH 7.0) was over 2 h, the half-life at 1 μM ([4]; 0.1 M phosphate buffer pH 8.0) was 0.667 h and the half-life at 1 μM ([4]; PBS pH 7.4) was 1.15 h. It also gave an IC50 (U87; Homo sapiens, U-87 MG, 72 h) of 168 µM, an IC50 (U251 [1]; Homo sapiens, U-251, 72 h) of 139 µM and an IC50 (T98G; Homo sapiens, 72 h, read-out: IC50, 72 h) of 581 µM. The “Clearance Classification (Low <8.6; High >48)” value [5] was “Moderate”, the microsomal CLint ([5]; mouse, liver microsomes, read-out: Intrinsic clearance (Clint)) was 25 µL/min/mg and the “% remaining (1 h) With co-factors” value ([5]; with co-factors) was 49%. The “% remaining (1 h) Without co-factors” value ([5]; without co-factors) was 94%, the efflux ratio (P-gp; Caco-2, without verapamil, read-out: Efflux Ratio BA/AB p-gp Inhibitor (−)) was 0.9 and the Papp A→B (P-gp; Caco-2, without verapamil, read-out: Papp (AB) p-gp Inhibitor (−)) was 26.6 ×10⁻⁶ cm/s. For the same molecule, the Papp B→A (P-gp; Caco-2, without verapamil, read-out: Papp (BA) p-gp Inhibitor (−)) was 24.3 ×10⁻⁶ cm/s, the “% Brain” value ([6]; 5 min) was 25% and the “% Plasma” value ([6]; 5 min) was 75%. The concentration at 5 min ([6]; male, CD-1, mouse, brain, read-out: Brain Conc.) was 3050 ng/g, the Kp at 5 min ([6]; male, CD-1, mouse, brain/plasma) was 0.99 and the concentration at 5 min ([6]; male, CD-1, mouse, plasma, read-out: Plasma Conc) was 3120 ng/mL. The IC50 (T98G cells; Homo sapiens, read-out: IC50 With O^6-BG pretreatment) was 168 µM, the IC50 (T98G cells; Homo sapiens, read-out: IC50 Without O^6-BG pretreatment) was 410 µM and the IC50 (GBM8) was 28 µM.

`O[C@H]([C@H](O)[C@@H]1CO1)[C@H]1CO1` [VAL-083, reference compound] gave an IC50 (T98G cells; 5-6 h pretreatment with 100 μM O6-BG, 3 days, read-out: IC50 With O^6-BG pretreatment) of 71 µM and an IC50 (T98G cells; 3 days, read-out: IC50 Without O^6-BG pretreatment) of 108 µM.
